Experimental data from the NIST ThermoML archive (doi:10.1021/je501106d).
Numbers after ± are expanded uncertainties.

Conditions: for speed of sound: Brillouin scattering; for vapor or sublimation pressure: Closed cell (Static) method

CCCCCCC [heptane]
speed of sound [m/s], Liquid
Conditions | 1000 kPa | 2500 kPa | 4000 kPa | 5500 kPa | 7000 kPa | 8500 kPa
302.15 K | 1112.9 ± 36 | 1126.4 ± 36 | 1139 ± 36 | 1152 ± 37 | 1163.2 ± 37 | 1174.3 ± 38
318.15 K | 1054.1 ± 34 | 1066.6 ± 34 | 1079 ± 34 | 1091 ± 35 | 1102 ± 35 | 1113 ± 36
333.15 K | 997.8 ± 32 | 1010 ± 32 | 1022 ± 33 | 1034 ± 33 | 1045 ± 34 | 1057 ± 34
348.15 K | 940.3 ± 30 | 952.9 ± 30 | 965.3 ± 31 | 977.6 ± 31 | 989.7 ± 32 | 1002 ± 32
363.15 K | 881.6 ± 28 | 895.3 ± 29 | 908.8 ± 29 | 922 ± 30 | 934.9 ± 30 | 947.6 ± 30
378.15 K | 821.8 ± 26 | 837.2 ± 27 | 852.2 ± 27 | 866.8 ± 28 | 881 ± 28 | 894.7 ± 29
393.15 K | 760.8 ± 24 | 778.7 ± 25 | 795.8 ± 26 | 812.2 ± 26 | 827.9 ± 26 | 842.9 ± 27
408.15 K | 698.6 ± 22 | 719.6 ± 23 | 739.4 ± 24 | 758.2 ± 24 | 775.8 ± 25 | 792.2 ± 25
418.15 K | 656.6 ± 21 | 680 ± 22 | 701.9 ± 22 | 722.4 ± 23 | 741.5 ± 24 | 759.1 ± 24
428.15 K | 614 ± 20 | 640.1 ± 20 | 664.4 ± 21 | 686.9 ± 22 | 707.6 ± 23 | 726.4 ± 23
438.15 K | 570.9 ± 18 | 600 ± 19 | 626.9 ± 20 | 651.6 ± 21 | 674 ± 22 | 694.3 ± 22
448.15 K | 527.2 ± 17 | 559.7 ± 18 | 589.5 ± 19 | 616.6 ± 20 | 640.9 ± 21 | 662.6 ± 21
453.15 K | 505.2 ± 16 | 539.5 ± 17 | 570.8 ± 18 | 599.1 ± 19 | 624.5 ± 20 | 647 ± 21

Conditions | speed of sound, Gas [m/s] | speed of sound, Liquid [m/s] | vapor or sublimation pressure, Liquid [kPa]
302.15 K | – | 1108 ± 35 | 12
318.15 K | – | 1042 ± 33 | 31 ± 30
333.15 K | – | 981.5 ± 31 | 50 ± 30
348.15 K | – | 921.1 ± 30 | 84 ± 30
363.15 K | – | 861.2 ± 28 | 116 ± 30
378.15 K | – | 801.6 ± 26 | 152 ± 30
393.15 K | – | 742.3 ± 24 | 204 ± 30
408.15 K | 170.3 ± 5.5 | 683.1 ± 22 | 286 ± 30
418.15 K | 168.1 ± 5.5 | 643.5 ± 21 | 352 ± 30
428.15 K | 165.9 ± 5.4 | 603.9 ± 19 | 441 ± 30
438.15 K | 163.4 ± 5.3 | 564 ± 18 | 535 ± 30
448.15 K | 160.5 ± 5.2 | 523.9 ± 17 | 654 ± 30
453.15 K | 158.8 ± 5.2 | 503.6 ± 16 | –
